From ChEMBL document CHEMBL1201862, “PubChem BioAssay data set” (2004)
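Where inhibition never reached the appropriate level, the endpoint shown equals the highest concentration tested. Otherwise, values were interpolated linearly from a five-concentration, 48-hour dose response in 96-well plates. GI50 = concentration required for 50% inhibition of growth.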 The source made the active and inactive calls. Rule as the data show it: active = GI50 up to about 1.1 µM and inactive = higher.

Assays:
Experiment in all cases: NCI tumour cell line growth inhibition, 48 h
HL-60 = tested on: HL-60
MOLT-4 = tested on: MOLT-4
ACHN = tested on: ACHN
SK-MEL-28 = tested on: SK-MEL-28
SNB-19 = tested on: SNB-19
HCC 2998 = tested on: HCC 2998
BT-549 = tested on: BT-549
LOX IMVI = tested on: LOX IMVI
SK-OV-3 = tested on: SK-OV-3
MDA-MB-435 = tested on: MDA-MB-435
COLO 205 = tested on: COLO 205
K562 = tested on: K562
A498 = tested on: A498
M14 = tested on: M14
UO-31 = tested on: UO-31
SK-MEL-5 = tested on: SK-MEL-5
U-251 = tested on: U-251
Hs-578T = tested on: Hs-578T
NCI-H226 = tested on: NCI-H226
Malme-3M = tested on: Malme-3M
SW-620 = tested on: SW-620
SF-539 = tested on: SF-539
CCRF-CEM = tested on: CCRF-CEM
SF-268 = tested on: SF-268
NCI-H460 = tested on: NCI-H460
SNB-75 = tested on: SNB-75
OVCAR-4 = tested on: OVCAR-4
KM12 = tested on: KM12
HOP-62 = tested on: HOP-62
DU-145 = tested on: DU-145
SF-295 = tested on: SF-295
786-0 = tested on: 786-0
SN12C = tested on: SN12C
NCI-H23 = tested on: NCI-H23
HOP-92 = tested on: HOP-92
RXF 393 = tested on: RXF 393
HCT-116 = tested on: HCT-116
RPMI-8226 = tested on: RPMI-8226
IGROV-1 = tested on: IGROV-1
HCT-15 = tested on: HCT-15
MDA-MB-231 = tested on: MDA-MB-231
NCI/ADR-RES = tested on: NCI/ADR-RES
CAKI-1 = tested on: CAKI-1
A549 = tested on: A549
TK-10 = tested on: TK-10
UACC-62 = tested on: UACC-62
NCI-H522 = tested on: NCI-H522
SR = tested on: SR
MDA-N = tested on: MDA-N
PC-3 = tested on: PC-3
OVCAR-5 = tested on: OVCAR-5
HT-29 = tested on: HT-29
T47D = tested on: T47D
OVCAR-8 = tested on: OVCAR-8
SK-MEL-2 = tested on: SK-MEL-2
MCF7 = tested on: MCF7
UACC-257 = tested on: UACC-257
EKVX = tested on: EKVX
OVCAR-3 = tested on: OVCAR-3

COc1cccc(C2c3cc4c(cc3OC(N3CCOCC3)C2C)OCO4)c1O (stereo not drawn)
GI50 (HL-60): 2.26 µM (inactive)
GI50 (MOLT-4): 4.02 µM (inactive)
GI50 (ACHN): 10.1 µM (inactive)
GI50 (SK-MEL-28): 10.9 µM (inactive)
GI50 (SNB-19): 3.44 µM (inactive)
GI50 (HCC 2998): 7.23 µM (inactive)
GI50 (BT-549): 13.9 µM (inactive)
GI50 (LOX IMVI): 5.31 µM (inactive)
GI50 (SK-OV-3): 5.56 µM (inactive)
GI50 (MDA-MB-435): 1.24 µM (inactive)
GI50 (COLO 205): 4.28 µM (inactive)
GI50 (K562): 3.06 µM (inactive)
GI50 (A498): 6.27 µM (inactive)
GI50 (M14): 4.6 µM (inactive)
GI50 (UO-31): 8.3 µM (inactive)
GI50 (SK-MEL-5): 3.6 µM (inactive)
GI50 (U-251): 0.38 µM (active)
GI50 (Hs-578T): 1.77 µM (inactive)
GI50 (NCI-H226): 4.46 µM (inactive)
GI50 (Malme-3M): 4.99 µM (inactive)
GI50 (SW-620): 3.87 µM (inactive)
GI50 (SF-539): 2.69 µM (inactive)
GI50 (CCRF-CEM): 3.28 µM (inactive)
GI50 (SF-268): 6.89 µM (inactive)
GI50 (NCI-H460): 3.55 µM (inactive)
GI50 (SNB-75): 7.29 µM (inactive)
GI50 (OVCAR-4): 9.86 µM (inactive)
GI50 (KM12): 3.48 µM (inactive)
GI50 (HOP-62): 4.27 µM (inactive)
GI50 (DU-145): 4.43 µM (inactive)
GI50 (SF-295): 3.64 µM (inactive)
GI50 (786-0): 5.6 µM (inactive)
GI50 (SN12C): 6.59 µM (inactive)
GI50 (NCI-H23): 6.73 µM (inactive)
GI50 (HOP-92): 12.1 µM (inactive)
GI50 (RXF 393): 2.13 µM (inactive)
GI50 (HCT-116): 3.84 µM (inactive)
GI50 (RPMI-8226): 2.83 µM (inactive)
GI50 (IGROV-1): 6.19 µM (inactive)
GI50 (HCT-15): 3.32 µM
GI50 (MDA-MB-231): 11.6 µM (inactive)
GI50 (NCI/ADR-RES): 7.21 µM (inactive)
GI50 (CAKI-1): 2.66 µM (inactive)
GI50 (A549): 4.82 µM (inactive)
GI50 (TK-10): 8.24 µM (inactive)
GI50 (UACC-62): 4.53 µM (inactive)
GI50 (NCI-H522): 2.9 µM (inactive)
GI50 (SR): 1.23 µM (inactive)
GI50 (MDA-N): 1.03 µM (active)
GI50 (PC-3): 4.7 µM (inactive)
GI50 (OVCAR-5): 7.46 µM (inactive)
GI50 (HT-29): 4.02 µM (inactive)
GI50 (T47D): 4.48 µM (inactive)
GI50 (OVCAR-8): 6.59 µM (inactive)
GI50 (SK-MEL-2): 7.1 µM (inactive)
GI50 (MCF7): 5.14 µM (inactive)
GI50 (UACC-257): 9.14 µM (inactive)
GI50 (EKVX): 9.14 µM (inactive)
GI50 (OVCAR-3): 3.64 µM (inactive)

S=C1NCN2CCN(CC2)CNC(=S)C(=S)NCN2CCN(CC2)CNC1=S
GI50 (HL-60): 24.2 µM (inactive)
GI50 (ACHN): 72.1 µM (inactive)
GI50 (SK-MEL-28): > 100 µM (inactive)
GI50 (SNB-19): 41.1 µM (inactive)
GI50 (HCC 2998): 78.5 µM (inactive)
GI50 (BT-549): 59 µM (inactive)
GI50 (LOX IMVI): 22.3 µM (inactive)
GI50 (SK-OV-3): > 100 µM (inactive)
GI50 (MDA-MB-435): 39.8 µM (inactive)
GI50 (COLO 205): 35.6 µM (inactive)
GI50 (K562): 27.3 µM (inactive)
GI50 (A498): > 100 µM (inactive)
GI50 (M14): 30.1 µM (inactive)
GI50 (UO-31): 25.6 µM (inactive)
GI50 (SK-MEL-5): 39.5 µM (inactive)
GI50 (U-251): 37.7 µM (inactive)
GI50 (Hs-578T): 54.1 µM (inactive)
GI50 (NCI-H226): > 100 µM (inactive)
GI50 (Malme-3M): > 100 µM (inactive)
GI50 (SW-620): 30.4 µM (inactive)
GI50 (CCRF-CEM): 18.5 µM (inactive)
GI50 (SF-268): 61.2 µM (inactive)
GI50 (NCI-H460): 20.7 µM (inactive)
GI50 (SNB-75): > 100 µM (inactive)
GI50 (OVCAR-4): > 100 µM (inactive)
GI50 (KM12): > 100 µM (inactive)
GI50 (HOP-62): 37.9 µM (inactive)
GI50 (DU-145): 36.8 µM (inactive)
GI50 (SF-295): > 100 µM (inactive)
GI50 (786-0): 45.1 µM (inactive)
GI50 (SN12C): 44.5 µM (inactive)
GI50 (NCI-H23): 43 µM (inactive)
GI50 (HOP-92): 62.1 µM (inactive)
GI50 (RXF 393): 56 µM (inactive)
GI50 (HCT-116): 79.4 µM (inactive)
GI50 (RPMI-8226): 23.7 µM (inactive)
GI50 (IGROV-1): 64.3 µM (inactive)
GI50 (HCT-15): 31.3 µM
GI50 (MDA-MB-231): > 100 µM (inactive)
GI50 (NCI/ADR-RES): 67.5 µM (inactive)
GI50 (CAKI-1): 35.2 µM (inactive)
GI50 (A549): 36.8 µM (inactive)
GI50 (TK-10): > 100 µM (inactive)
GI50 (UACC-62): 67.8 µM (inactive)
GI50 (NCI-H522): 31 µM (inactive)
GI50 (SR): 58.9 µM (inactive)
GI50 (MDA-N): 67.8 µM (inactive)
GI50 (PC-3): 35.2 µM (inactive)
GI50 (OVCAR-5): > 100 µM (inactive)
GI50 (HT-29): 85.5 µM (inactive)
GI50 (T47D): > 100 µM (inactive)
GI50 (OVCAR-8): 31.8 µM (inactive)
GI50 (SK-MEL-2): 43.2 µM (inactive)
GI50 (MCF7): 54.5 µM (inactive)
GI50 (UACC-257): 42.7 µM (inactive)
GI50 (EKVX): 40.9 µM (inactive)
GI50 (OVCAR-3): 22 µM (inactive)

Cc1cc(C)c(C2=NOC(c3ccccc3)(c3cc(=O)n(-c4ccccc4)s3)O2)c(C)c1 (stereo not drawn)
GI50 (HL-60): 22.1 µM (inactive)
GI50 (MOLT-4): 41.9 µM (inactive)
GI50 (ACHN): 24.2 µM (inactive)
GI50 (SK-MEL-28): 32 µM (inactive)
GI50 (SNB-19): 50.6 µM (inactive)
GI50 (HCC 2998): 32.5 µM (inactive)
GI50 (BT-549): 24.8 µM (inactive)
GI50 (LOX IMVI): 15.8 µM (inactive)
GI50 (SK-OV-3): > 100 µM (inactive)
GI50 (MDA-MB-435): 48.3 µM (inactive)
GI50 (COLO 205): 23.6 µM (inactive)
GI50 (K562): > 100 µM (inactive)
GI50 (A498): > 100 µM (inactive)
GI50 (M14): 27 µM (inactive)
GI50 (UO-31): 20.8 µM (inactive)
GI50 (SK-MEL-5): 74 µM (inactive)
GI50 (U-251): 24.7 µM (inactive)
GI50 (Hs-578T): 52.6 µM (inactive)
GI50 (NCI-H226): 31.5 µM (inactive)
GI50 (Malme-3M): 18.8 µM (inactive)
GI50 (SW-620): 26.4 µM (inactive)
GI50 (CCRF-CEM): 23.8 µM (inactive)
GI50 (SF-268): 44.2 µM (inactive)
GI50 (NCI-H460): 43.1 µM (inactive)
GI50 (SNB-75): 26.5 µM (inactive)
GI50 (OVCAR-4): 53.1 µM (inactive)
GI50 (KM12): 37 µM (inactive)
GI50 (HOP-62): 33.2 µM (inactive)
GI50 (DU-145): 32.1 µM (inactive)
GI50 (SF-295): > 100 µM (inactive)
GI50 (786-0): 19 µM (inactive)
GI50 (SN12C): 33 µM (inactive)
GI50 (NCI-H23): 20.6 µM (inactive)
GI50 (HOP-92): 23.2 µM (inactive)
GI50 (RXF 393): 17.3 µM (inactive)
GI50 (HCT-116): > 100 µM (inactive)
GI50 (RPMI-8226): 37 µM (inactive)
GI50 (IGROV-1): 37.1 µM (inactive)
GI50 (HCT-15): 19.3 µM
GI50 (MDA-MB-231): 30.8 µM (inactive)
GI50 (NCI/ADR-RES): 23.3 µM (inactive)
GI50 (CAKI-1): 17.2 µM (inactive)
GI50 (A549): 29.5 µM (inactive)
GI50 (TK-10): 25.1 µM (inactive)
GI50 (UACC-62): 23.2 µM (inactive)
GI50 (NCI-H522): 17.5 µM (inactive)
GI50 (SR): 89.7 µM (inactive)
GI50 (MDA-N): 38.8 µM (inactive)
GI50 (PC-3): 30.9 µM (inactive)
GI50 (OVCAR-5): 18 µM (inactive)
GI50 (HT-29): 18.8 µM (inactive)
GI50 (T47D): 17.3 µM (inactive)
GI50 (OVCAR-8): 18.7 µM (inactive)
GI50 (SK-MEL-2): 28 µM (inactive)
GI50 (MCF7): 18.6 µM (inactive)
GI50 (UACC-257): 38.9 µM (inactive)
GI50 (EKVX): 21.9 µM (inactive)
